Data reported in patent publication US4360665A, “4"-N-(Substituted)-apramycin antibiotic derivatives and intermediates therefor” (Eli Lilly and Company, priority 1981, dated 1982).
In brackets after ≈: the same amount, converted by molar mass. Where two headings read alike, the source gives them in different places.

Columns and labels:
[1] = test system: Proteus inconstans PR33; experiment: MIC by standard agar dilution test; type: cell-based; conditions: Providencia alcalifaciens, Table 1, read-out: Minimum Inhibitory Concentration
Text: (§1) The antibacterial activity of the antibiotic compounds of this invention is illustrated by the following in vitro and in vivo test data obtained with representative compounds. In Tables I and II, the minimum inhibitory concentration (MIC) for representative compounds against a wide range of gram-positive and gram-negative bacteria are presented. The MIC values were obtained by the standard agar dilution test.

[2] = test system: Enterobacter aerogenes EB17; experiment: MIC by standard agar dilution test; type: cell-based; conditions: Klebsiella aerogenes, Table 1, read-out: Minimum Inhibitory Concentration
Text: as §1

[3] = test system: Salmonella heidelberg X514; experiment: MIC by standard agar dilution test; type: cell-based; conditions: Salmonella enterica, Table 1, read-out: Minimum Inhibitory Concentration
Text: as §1

[4] = test system: Serratia marcescens SE3; experiment: MIC by standard agar dilution test; type: cell-based
Text: as §1

[5] = test system: Enterobacter aerogenes C32; experiment: MIC by standard agar dilution test; type: cell-based; conditions: Klebsiella aerogenes, Table 1, read-out: Minimum Inhibitory Concentration
Text: as §1

[6] = test system: Streptococcus pyogenes C203; experiment: MIC by standard agar dilution test; type: cell-based; conditions: Table 1, read-out: Minimum Inhibitory Concentration
Text: as §1

[7] = test system: Streptococcus group D 9960; experiment: MIC by standard agar dilution test; type: cell-based; conditions: D9960, Table 1, read-out: Minimum Inhibitory Concentration
Text: as §1

[8] = test system: Pseudomonas aeruginosa PI23; experiment: MIC by standard agar dilution test; type: cell-based; conditions: Table II, read-out: Minimum Inhibitory Concentration
Text: as §1

[9] = test system: Citrobacter freundii CF17; experiment: MIC by standard agar dilution test; type: cell-based; conditions: Table 1, read-out: Minimum Inhibitory Concentration
Text: as §1

[10] = test system: Staphylococcus epidermidis EPI2; experiment: MIC by standard agar dilution test; type: cell-based; conditions: Table 1, read-out: Minimum Inhibitory Concentration
Text: as §1

[11] = test system: Pseudomonas aeruginosa Ps18; experiment: MIC by standard agar dilution test; type: cell-based; conditions: Table 1; Pseudomonas aeruginosa Ps18; agar dilution; read-out: Minimum Inhibitory Concentration
Text: as §1

[12] = test system: Salmonella typhimurium 1335; experiment: MIC by standard agar dilution test; type: cell-based; conditions: Salmonella enterica, Table 1, read-out: Minimum Inhibitory Concentration
Text: as §1

[13] = test system: Staphylococcus aureus S13E; experiment: MIC by standard agar dilution test; type: cell-based; conditions: read-out: Minimum Inhibitory Concentration
Text: as §1

[14] = test system: Pseudomonas aeruginosa SF-2; experiment: MIC by standard agar dilution test; type: cell-based; conditions: SF2, Table II, read-out: Minimum Inhibitory Concentration
Text: as §1

[15] = test system: Staphylococcus epidermidis EPI1; experiment: MIC by standard agar dilution test; type: cell-based; conditions: Table 1, read-out: Minimum Inhibitory Concentration
Text: as §1

[16] = test system: Bordetella bronchiseptica 16; experiment: MIC by standard agar dilution test; type: cell-based; conditions: Bordetella bronchiseptica, 16, read-out: Minimum Inhibitory Concentration
Text: as §1

[17] = test system: Shigella sonnei N9; experiment: MIC by standard agar dilution test; type: cell-based; conditions: Table 1, read-out: Minimum Inhibitory Concentration
Text: as §1

[18] = test system: Pseudomonas aeruginosa Ps25; experiment: MIC by standard agar dilution test; type: cell-based; conditions: Table II, read-out: Minimum Inhibitory Concentration
Text: as §1

[19] = test system: Haemophilus influenzae HOLT; experiment: MIC by standard agar dilution test; type: cell-based; conditions: Table 1, read-out: Minimum Inhibitory Concentration
Text: as §1

[20] = test system: Pseudomonas aeruginosa X528; experiment: MIC by standard agar dilution test; type: cell-based
Text: as §1

[21] = test system: Enterobacter aerogenes EB6; experiment: MIC by standard agar dilution test; type: cell-based; conditions: Klebsiella aerogenes; Table II; Enterobacter aerogenes EB6; agar dilution; read-out: Minimum Inhibitory Concentration
Text: as §1

[22] = test system: Streptococcus pneumoniae Park 1; experiment: MIC by standard agar dilution test; type: cell-based; conditions: PARK1, Table 1, read-out: Minimum Inhibitory Concentration
Text: as §1

[23] = test system: Proteus rettgeri C24; experiment: MIC by standard agar dilution test; type: cell-based; conditions: Providencia rettgeri, Table 1, read-out: Minimum Inhibitory Concentration
Text: as §1

[24] = test system: Haemophilus influenzae R252; experiment: MIC by standard agar dilution test; type: cell-based; conditions: Table 1; Haemophilus influenzae R252; agar dilution; read-out: Minimum Inhibitory Concentration
Text: as §1

[25] = test system: Staphylococcus aureus V41; experiment: MIC by standard agar dilution test; type: cell-based; conditions: Table 1, read-out: Minimum Inhibitory Concentration
Text: as §1

[26] = test system: Pseudomonas aeruginosa Ps15; experiment: MIC by standard agar dilution test; type: cell-based; conditions: Table II, read-out: Minimum Inhibitory Concentration
Text: as §1

[27] = test system: Klebsiella pneumoniae X26; experiment: MIC by standard agar dilution test; type: cell-based; conditions: Table 1, read-out: Minimum Inhibitory Concentration
Text: as §1

[28] = test system: Streptococcus group D X66; experiment: MIC by standard agar dilution test; type: cell-based; conditions: DX66, Table 1, read-out: Minimum Inhibitory Concentration
Text: as §1

[29] = test system: Escherichia coli TEM; experiment: MIC by standard agar dilution test; type: cell-based; conditions: read-out: Minimum Inhibitory Concentration
Text: as §1

[30] = test system: Pseudomonas aeruginosa Ps9; experiment: MIC by standard agar dilution test; type: cell-based; conditions: Table II, read-out: Minimum Inhibitory Concentration
Text: as §1

[31] = test system: Proteus rettgeri PR7; experiment: MIC by standard agar dilution test; type: cell-based; conditions: Providencia rettgeri, Table 1, read-out: Minimum Inhibitory Concentration
Text: as §1

[32] = test system: Enterobacter cloacae EN453; experiment: MIC by standard agar dilution test; type: cell-based; conditions: Table II, read-out: Minimum Inhibitory Concentration
Text: as §1

[33] = test system: Enterobacter aerogenes X68; experiment: MIC by standard agar dilution test; type: cell-based; conditions: Klebsiella aerogenes, Table 1, read-out: Minimum Inhibitory Concentration
Text: as §1

[34] = test system: Pseudomonas aeruginosa X239; experiment: MIC by standard agar dilution test; type: cell-based
Text: as §1

[35] = test system: Staphylococcus aureus X400; experiment: MIC by standard agar dilution test; type: cell-based; conditions: Table 1, read-out: Minimum Inhibitory Concentration
Text: as §1

[36] = test system: Proteus morganii PR15; experiment: MIC by standard agar dilution test; type: cell-based; conditions: Morganella morganii, Table 1, read-out: Minimum Inhibitory Concentration
Text: as §1

[37] = test system: Serratia marcescens SE2; experiment: MIC by standard agar dilution test; type: cell-based; conditions: Table II, read-out: Minimum Inhibitory Concentration
Text: as §1

[38] = test system: Staphylococcus aureus X1.1; experiment: MIC by standard agar dilution test; type: cell-based; conditions: Table 1, read-out: Minimum Inhibitory Concentration
Text: as §1

[39] = test system: Proteus inconstans PV25; experiment: MIC by standard agar dilution test; type: cell-based; conditions: Providencia alcalifaciens, Table II, read-out: Minimum Inhibitory Concentration
Text: as §1

[40] = test system: Enterobacter cloacae EB24; experiment: MIC by standard agar dilution test; type: cell-based; conditions: Table II; Enterobacter cloacae EB24; agar dilution; read-out: Minimum Inhibitory Concentration
Text: as §1

[41] = test system: Klebsiella pneumoniae KAE; experiment: MIC by standard agar dilution test; type: cell-based; conditions: Table 1, read-out: Minimum Inhibitory Concentration
Text: as §1

[42] = test system: Enterobacter cloacae 265A; experiment: MIC by standard agar dilution test; type: cell-based; conditions: Table 1, read-out: Minimum Inhibitory Concentration
Text: as §1

[43] = test system: Pseudomonas aeruginosa 4276; experiment: MIC by standard agar dilution test; type: cell-based; conditions: Table II, read-out: Minimum Inhibitory Concentration
Text: as §1

[44] = test system: Escherichia coli N10; experiment: MIC by standard agar dilution test; type: cell-based; conditions: Table 1, read-out: Minimum Inhibitory Concentration
Text: as §1

[45] = test system: Proteus morganii PR1; experiment: MIC by standard agar dilution test; type: cell-based; conditions: Morganella morganii, Table II, read-out: Minimum Inhibitory Concentration
Text: as §1

[46] = test system: Enterobacter cloacae EB5; experiment: MIC by standard agar dilution test; type: cell-based; conditions: Table 1, read-out: Minimum Inhibitory Concentration
Text: as §1

[47] = test system: Proteus rettgeri PR2; experiment: MIC by standard agar dilution test; type: cell-based; conditions: Providencia rettgeri, Table II, read-out: Minimum Inhibitory Concentration
Text: as §1

[48] = test system: Klebsiella pneumoniae KL2; experiment: MIC by standard agar dilution test; type: cell-based; conditions: Table II, read-out: Minimum Inhibitory Concentration
Text: as §1

[49] = test system: Escherichia coli EC14; experiment: MIC by standard agar dilution test; type: cell-based; conditions: Table 1, read-out: Minimum Inhibitory Concentration
Text: as §1

[50] = test system: Pseudomonas aeruginosa X48; experiment: MIC by standard agar dilution test; type: cell-based; conditions: Table II, read-out: Minimum Inhibitory Concentration
Text: as §1

[51] = test system: Serratia marcescens X99; experiment: MIC by standard agar dilution test; type: cell-based
Text: as §1

[52] = test system: Staphlyococcus aureus 3055; experiment: Subcutaneous therapy of experimental bacterial infection in mice; type: in vivo; conditions: Mus musculus, sc, subcutaneous doses at 1 and 5 hours postinfection, read-out: Effective Dose (ED50), dose to protect 50 percent of the test animals
Description: Table III illustrates the effective dose (ED50, effective dose to protect 50 percent of the test animals) for a representative compound of this invention against an experimental bacterial infection in mice. | *mg/kg × 2 subcutaneous doses at 1 and 5 hours postinfection The ED50 value was determined as described by W. E. Wick et al., Journal of Bacteriology, 81 [No. 2], 233-235 (1961).

For `CN[C@@H]1[C@@H](O[C@H]2O[C@H](CO)[C@@H](NC(C)=O)[C@H](O)[C@H]2O)O[C@H]2C[C@@H](N)[C@@H](O[C@H]3[C@H](O)[C@@H](O)[C@H](N)C[C@@H]3N)O[C@@H]2[C@@H]1O` [Test Compound 1, 4"-N-Acetylapramycin], the MIC [1] was 16 µg/mL (≈ 27.5 µM), the MIC [2] was 16 µg/mL (≈ 27.5 µM) and the MIC [3] was 32 µg/mL (≈ 55 µM). The MIC ([4]; SE3, Table 1, read-out: Minimum Inhibitory Concentration) was 32 µg/mL (≈ 55 µM), the MIC ([4]; SE3, Table II, read-out: Minimum Inhibitory Concentration) was 8 µg/mL (≈ 13.8 µM) and the MIC [5] was 16 µg/mL (≈ 27.5 µM). It also gave an MIC [6] of over 128 µg/mL, an MIC [7] of over 128 µg/mL and an MIC [8] of over 128 µg/mL. It also gave an MIC [9] of 32 µg/mL (≈ 55 µM), an MIC [10] of 64 µg/mL (≈ 110 µM) and an MIC [11] of 16 µg/mL (≈ 27.5 µM). For the same molecule, the MIC [12] was 32 µg/mL (≈ 55 µM), the MIC [13] was 64 µg/mL (≈ 110 µM) and the MIC [14] was 64 µg/mL (≈ 110 µM). It also gave an MIC [15] of 32 µg/mL (≈ 55 µM), an MIC [16] of 128 µg/mL (≈ 220 µM) and an MIC [17] of 32 µg/mL (≈ 55 µM). For the same molecule, the MIC [18] was 32 µg/mL (≈ 55 µM), the MIC [19] was 16 µg/mL (≈ 27.5 µM) and the “Minimum Inhibitory Concentration” value ([20]; Table 1) was 64 µg/mL. For the same molecule, the MIC ([20]; Table II, read-out: Minimum Inhibitory Concentration) was 64 µg/mL (≈ 110 µM), the MIC [21] was 8 µg/mL (≈ 13.8 µM) and the MIC [22] was 128 µg/mL (≈ 220 µM). It also gave an MIC [23] of 32 µg/mL (≈ 55 µM), an MIC [24] of 16 µg/mL (≈ 27.5 µM) and an MIC [25] of 64 µg/mL (≈ 110 µM). The MIC [26] was 32 µg/mL (≈ 55 µM), the MIC [27] was 16 µg/mL (≈ 27.5 µM) and the MIC [28] was over 128 µg/mL. For the same molecule, the MIC [29] was 16 µg/mL (≈ 27.5 µM), the MIC [30] was 128 µg/mL (≈ 220 µM) and the MIC [31] was 32 µg/mL (≈ 55 µM). It also gave an MIC [32] of 8 µg/mL (≈ 13.8 µM), an MIC [33] of 16 µg/mL (≈ 27.5 µM) and an MIC ([34]; X239, Table 1, read-out: Minimum Inhibitory Concentration) of 64 µg/mL (≈ 110 µM). The MIC ([34]; X239, Table II, read-out: Minimum Inhibitory Concentration) was 32 µg/mL (≈ 55 µM), the MIC [35] was 128 µg/mL (≈ 220 µM) and the MIC [36] was 32 µg/mL (≈ 55 µM). The MIC [37] was 8 µg/mL (≈ 13.8 µM), the MIC [38] was 32 µg/mL (≈ 55 µM) and the MIC [39] was 8 µg/mL (≈ 13.8 µM). It also gave an MIC [40] of 8 µg/mL (≈ 13.8 µM), an MIC [41] of 16 µg/mL (≈ 27.5 µM) and an MIC [42] of 32 µg/mL (≈ 55 µM). For the same molecule, the MIC [43] was 32 µg/mL (≈ 55 µM), the MIC [44] was 32 µg/mL (≈ 55 µM) and the MIC [45] was 8 µg/mL (≈ 13.8 µM). The MIC [46] was 32 µg/mL (≈ 55 µM), the MIC [47] was 32 µg/mL (≈ 55 µM) and the MIC [48] was 8 µg/mL (≈ 13.8 µM). It also gave an MIC [49] of 16 µg/mL (≈ 27.5 µM), an MIC [50] of 32 µg/mL (≈ 55 µM) and an MIC ([51]; X99, Table 1, read-out: Minimum Inhibitory Concentration) of 16 µg/mL (≈ 27.5 µM). It also gave an MIC ([51]; X99, Table II, read-out: Minimum Inhibitory Concentration) of 4 µg/mL (≈ 6.88 µM) and an ED50 [52] of 9.4 mg/kg.
